Measurements: patent US11440913B2, “Aminoimidazopyridazines as kinase inhibitors” (BRISTOL-MYERS SQUIBB COMPANY, priority 2017, dated 2022)
Structures can show the parent of a compound that is named as a salt. Where two headings read alike, the source gives them in different places.

Legend:
[1] = molecular target: His-GST-TVMV-hRIPK1(1-324) (Homo sapiens (Human), UniProt Q13546); experiment: RIPK1 HTRF Binding Assay; settings: HTRF binding, 1 h at rt; read-out: RIPK1 (IC50)
Procedure, shortened: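 HTRF probe-displacement binding: 1 nM His-GST-TVMV-hRIPK1(1-324) (baculovirus construct), 90.6 nM probe, 0.2 nM anti-GST-Tb in 20 mM HEPES, 10 mM MgCl2, 0.015% Brij-35, 4 mM DTT, 0.05 mg/mL BSA. Incubated 1 h at rt; FRET 520/495 nm ratio, inhibition relative to DMSO-only wells.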

[2] = test system: MLKL phosphorylation in HT29-L23 human colorectal adenocarcinoma cells; experiment: MLKL Phosphorylation High-Content Assay; type: cell-based; settings: 6 h, necroptosis induced with TNFα, SMAC mimetic and Z-VAD, read-out: pMLKL (IC50)
Procedure, shortened: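 HT29-L23 cells pretreated 30 min at 37 °C with compound (6.25 to 0.106 μM final), then necroptosis induced with TNFα 35 ng/mL, SMAC mimetic 700 nM and Z-VAD 140 nM for 6 h. Fixed cells immunostained for MLKL pS358 and imaged; IC50 and Ymax from 4-parameter logistic fit.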

Sequence of His-GST-TVMV-hRIPK1(1-324) (Q13546 1-324): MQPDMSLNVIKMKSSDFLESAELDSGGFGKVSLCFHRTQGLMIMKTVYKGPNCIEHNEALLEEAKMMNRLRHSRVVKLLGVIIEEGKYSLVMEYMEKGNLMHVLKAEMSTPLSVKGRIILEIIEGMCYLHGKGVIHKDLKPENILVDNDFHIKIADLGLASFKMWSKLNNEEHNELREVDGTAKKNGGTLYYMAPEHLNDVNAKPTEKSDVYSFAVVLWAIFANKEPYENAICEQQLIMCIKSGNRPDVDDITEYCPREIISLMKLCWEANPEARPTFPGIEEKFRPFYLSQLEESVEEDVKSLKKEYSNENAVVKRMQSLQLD

| Compound | IC50 [1] [nM] | IC50 ([2]; Homo sapiens) [nM] | IC50 [2] [nM] |
| --- | --- | --- | --- |
| COc1ncc(-c2ccc3nc(NC(=O)C(C)C)cn3n2)cc1C(=O)NCc1ccccc1OC(F)(F)F [Example 263, 2-methoxy-5-[2-(2-methylpropanamido)imidazo[1,2-b]pyridazin-6-yl]-N-{[2-(trifluoromethoxy)phenyl]-methyl}pyridine-3-carboxamide] | 107 | 38 |  |
| COc1ncc(-c2ccc3nc(NC(=O)C(C)C)cn3n2)cc1C(=O)NCc1ccc(F)c(F)c1OCC1CC1 [Example 264, N-{[2-(cyclopropylmethoxy)-3,4-difluorophenyl]methyl}-2-methoxy-5-[2-(2-methylpropanamido)imidazo[1,2-b]pyridazin-6-yl]pyridine-3-carboxamide, TFA] | 55 |  | 240 |
| COc1ncc(-c2ccc3nc(NC(=O)C(C)C)cn3n2)cc1C(=O)NCc1cc(F)cc(F)c1OC1CCOCC1 [Example 265, N-{[3,5-difluoro-2-(oxan-4-yloxy)phenyl]methyl}-2-methoxy-5-[2-(2-methylpropanamido)imidazo[1,2-b]pyridazin-6-yl]pyridine-3-carboxamide] | 3 | 7 |  |
| [2H]C([2H])(Oc1c(F)cc(F)cc1CNC(=O)c1cc(-c2ccc3nc(NC(C)=O)cn3n2)cnc1Cl)C1CC1 [Example 266, 2-chloro-N-({2-[cyclopropyl(deutero)methoxy]-3,5-difluorophenyl}methyl)-5-{2-acetamidoimidazo[1,2-b]pyridazin-6-yl}pyridine-3-carboxamide, TFA] | 3 | 18 |  |
| CC(=O)Nc1cn2nc(-c3cnc(Cl)c(C(=O)NCC[C@H](O)c4ccc(Cl)cc4)c3)ccc2n1 [Example 267, 2-chloro-N-[(3S)-3-(4-chlorophenyl)-3-hydroxypropyl]-5-{2-acetamidoimidazo[1,2-b]pyridazin-6-yl}pyridine-3-carboxamide] | 81 | 383 |  |
| CC(=O)Nc1cn2nc(-c3cnc(Cl)c(C(=O)NC(C)c4ccccc4OC(F)(F)F)c3)ccc2n1 (stereo not shown) [Example 268, 2-chloro-5-{2-acetamidoimidazo[1,2-b]pyridazin-6-yl}-N-{1-[2-(trifluoromethoxy)phenyl]ethyl}pyridine-3-carboxamide] | 46 | 73 |  |
| CC(=O)Nc1cn2nc(-c3cnc(Cl)c(C(=O)NC(C)c4cc(C(F)(F)F)ccc4F)c3)ccc2n1 (stereo not shown) [Example 269, 2-chloro-5-{2-acetamidoimidazo[1,2-b]pyridazin-6-yl}-N-{1-[2-fluoro-5-(trifluoromethyl)phenyl]ethyl}pyridine-3-carboxamide] | 55 | 209 |  |
| CC(=O)Nc1cn2nc(-c3cnc(Cl)c(C(=O)NC(C)c4cc(C(F)(F)F)ccc4F)c3)ccc2n1 (stereo not shown) [Example 270, 2-chloro-5-{2-acetamidoimidazo[1,2-b]pyridazin-6-yl}-N-{1-[2-fluoro-5-(trifluoromethyl)phenyl]ethyl}pyridine-3-carboxamide] | 23 |  | 204 |
| CC(=O)Nc1cn2nc(-c3cnc(Cl)c(C(=O)NC(C)c4ccccc4OC(F)(F)F)c3)ccc2n1 (stereo not shown) [Example 271, 2-chloro-5-{2-acetamidoimidazo[1,2-b]pyridazin-6-yl}-N-{1-[2-(trifluoromethoxy)phenyl]ethyl}pyridine-3-carboxamide] | 49 |  | 129 |
| CC(=O)Nc1cn2nc(-c3cnc(Cl)c(C(=O)NCc4cccc(OC(F)(F)F)c4)c3)ccc2n1 [Example 272, 2-chloro-5-{2-acetamidoimidazo[1,2-b]pyridazin-6-yl}-N-{[3-(trifluoromethoxy)phenyl]methyl}pyridine-3-carboxamide, TFA] | 26 |  | 122 |
| CC(=O)Nc1cn2nc(-c3cnc(Cl)c(C(=O)NCc4cc(F)cc(F)c4OC(C)C4CCC4)c3)ccc2n1 (stereo not shown) [Example 273, 2-chloro-N-{[2-(1-cyclobutylethoxy)-3,5-difluorophenyl]methyl}-5-{2-acetamidoimidazo[1,2-b]pyridazin-6-yl}pyridine-3-carboxamide, TFA] | 4 | 43 |  |
